ChEMBL document CHEMBL3351618, “Prospects of an alternative treatment against Trypanosoma cruzi based on abietic acid derivatives show promising results in Balb/c mouse model” (Eur J Med Chem, 2015)
One block for each molecule: values may come before it. The source made the active and inactive calls. The calls are words filed in the database; no cut-off is given here.

Columns and labels:
L6 = assay: Cytotoxicity against rat L6 cells; type: cell-based
Leishmania donovani [1] = assay: Antileishmanial activity against intracellular amastigote stage of Leishmania donovani; type: functional, organism-based
Leishmania donovani [2] = assay: Antileishmanial activity against intracellular amastigote form of Leishmania donovani; type: functional, organism-based
Leishmania major = assay: Antileishmanial activity against Leishmania major; type: functional, organism-based
Vero = assay: Cytotoxicity against african green monkey Vero cells after 72 hrs; type: cell-based; settings: Chlorocebus sabaeus
[3] = Selectivity index, ratio of IC50 for african green monkey Vero cells to IC50 for intracellular amastigote form of Trypanosoma cruzi IRHOD/CO/2008/SN3; type: toxicity, cell-based; settings: read-out: Ratio IC50
[4] = Selectivity index, ratio of IC50 for african green monkey Vero cells to IC50 for epimastigote Trypanosoma cruzi IRHOD/CO/2008/SN3; type: toxicity, cell-based; settings: read-out: Ratio IC50
Trypanosoma cruzi [5] = assay: Trypanocidal activity against epimastigote Trypanosoma cruzi IRHOD/CO/2008/SN3; type: functional, organism-based
Trypanosoma cruzi [6] = assay: Trypanocidal activity against intracellular amastigote form of Trypanosoma cruzi IRHOD/CO/2008/SN3 in african green monkey Vero cells; type: functional, organism-based; settings: IRHOD/CO/2008/SN3, Vero
Mus musculus [7] = assay: Toxicity in Trypanosoma cruzi IRHOD/CO/2008/SN3 infected in BALB/c mouse acute chagas disease model assessed as liver marker AST/GOT level at 25 mg/kg, ip after 60 days immunosuppressed with cyclophosphamide monohydrate measured up to day 120 post infection […]; type: organism-based; set-up: dose 25 mg/kg, route intraperitoneal; settings: in vivo, 1440 h
Mus musculus [8] = assay: Toxicity in Trypanosoma cruzi IRHOD/CO/2008/SN3 infected in BALB/c mouse acute chagas disease model assessed as liver marker ALT/GPT level at 25 mg/kg, ip after 60 days immunosuppressed with cyclophosphamide monohydrate measured up to day 120 post infection […]; type: organism-based; set-up: dose 25 mg/kg, route intraperitoneal; settings: in vivo, 1440 h
Mus musculus [9] = assay: Toxicity in Trypanosoma cruzi IRHOD/CO/2008/SN3 infected in BALB/c mouse acute chagas disease model assessed as heart marker LDH level at 25 mg/kg, ip after 60 days immunosuppressed with cyclophosphamide monohydrate measured up to day 120 post infection […]; type: organism-based; set-up: dose 25 mg/kg, route intraperitoneal; settings: in vivo, 1440 h
[10] = Inhibition of Fe-SOD in Trypanosoma cruzi epimastigote
Trypanosoma cruzi [11] = assay: Antiparasitic activity against trypomastigote form of Trypanosoma cruzi IRHOD/CO/2008/SN3 infected in BALB/c mouse acute chagas disease model assessed as parasite reduction in blood at 25 mg/kg, ip measured on day 40 post infection; type: functional; settings: IRHOD/CO/2008/SN3, Blood, 960 h, route intraperitoneal
Mus musculus [12] = assay: Toxicity in Trypanosoma cruzi IRHOD/CO/2008/SN3 infected in BALB/c mouse acute chagas disease model assessed as total bilirubuin level at 25 mg/kg, ip after 60 days immunosuppressed with cyclophosphamide monohydrate measured up to day 120 post infection […]; type: organism-based; set-up: dose 25 mg/kg, route intraperitoneal; settings: in vivo, 1440 h
[13] = Selectivity index, ratio of IC50 for african green monkey Vero cells to IC50 for trypomastigote form of Trypanosoma cruzi IRHOD/CO/2008/SN3; type: toxicity, cell-based; settings: read-out: Ratio IC50
Trypanosoma cruzi [14] = assay: Inhibition of Fe-SOD in Trypanosoma cruzi epimastigote at 80 uM
Trypanosoma cruzi [15] = assay: Increase in acetate catabolites in epimastigote Trypanosoma cruzi at IC25 concentration after 96 hrs; type: functional
Mus musculus [16] = assay: Toxicity in Trypanosoma cruzi IRHOD/CO/2008/SN3 infected in BALB/c mouse acute chagas disease model assessed as alkalyne phosphatase level at 25 mg/kg, ip after 60 days immunosuppressed with cyclophosphamide monohydrate measured up to day 120 post infection […]; type: organism-based; set-up: dose 25 mg/kg, route intraperitoneal; settings: in vivo, 1440 h
[17] = biological target: Superoxide dismutase [Cu-Zn] (Homo sapiens, UniProt P00441); assay: Inhibition of CuZn-SOD in human erythrocytes; type: cell-based
Trypanosoma cruzi [18] = assay: Trypanocidal activity against epimastigote Trypanosoma cruzi IRHOD/CO/2008/SN3 assessed as morphological disturbance at IC25 concentration; type: functional, organism-based
Trypanosoma cruzi [19] = assay: (§1) Antiparasitic activity against trypomastigote form of Trypanosoma cruzi IRHOD/CO/2008/SN3 infected in BALB/c mouse acute chagas disease model assessed as parasitemia reactivation at 25 mg/kg, ip after 60 days immunosuppressed with cyclophosphamide monohydrate measured up to day 120 post infection (reference value: 80.3%); type: functional; settings: route intraperitoneal
Trypanosoma cruzi [20] = assay: Increase in L-alanine catabolites in epimastigote Trypanosoma cruzi at IC25 concentration after 96 hrs; type: functional
Trypanosoma cruzi [21] = assay: Trypanocidal activity against epimastigote Trypanosoma cruzi IRHOD/CO/2008/SN3 infected in african green monkey Vero cells assessed as decrease in average number of amastigotes per infected cell at IC25 concentration on day 10; type: functional; set-up: scale not given: the % may be the effect or the level left
Mus musculus [22] = assay: Toxicity in Trypanosoma cruzi IRHOD/CO/2008/SN3 infected in BALB/c mouse acute chagas disease model assessed as kidney marker urea level at 25 mg/kg, ip after 60 days immunosuppressed with cyclophosphamide monohydrate measured up to day 120 post infection […]; type: organism-based; set-up: dose 25 mg/kg, route intraperitoneal; settings: in vivo, 1440 h
Trypanosoma cruzi [23] = assay: Increase in D-lactate catabolites in epimastigote Trypanosoma cruzi at IC25 concentration after 96 hrs; type: functional
Trypanosoma cruzi [24] = assay: Increase in succinate catabolites in epimastigote Trypanosoma cruzi at IC25 concentration after 96 hrs; type: functional
Trypanosoma cruzi [25] = assay: as §1, with “heart free from parasite” for “parasitemia reactivation”, “by PCR analysis” for “(reference value: 80.3%)”; type: functional; settings: route intraperitoneal
Trypanosoma cruzi [26] = assay: Increase in pyruvate catabolites in epimastigote Trypanosoma cruzi at IC25 concentration after 96 hrs; type: functional
Trypanosoma cruzi [27] = assay: Antiparasitic activity against trypomastigote form of Trypanosoma cruzi IRHOD/CO/2008/SN3 infected in BALB/c mouse acute chagas disease model assessed as parasite reduction in blood; type: functional, organism-based; settings: IRHOD/CO/2008/SN3, Blood
[28] = Selectivity index, ratio of IC50 for human MRC5 cells to IC50 for Plasmodium falciparum 2/K 1-strain; type: toxicity, cell-based; settings: read-out: Ratio IC50
Trypanosoma brucei = assay: Antitrypanosomal activity against trypomastigote Trypanosoma brucei Squib-427 strain cultured in MRC-5 cells assessed as parasite growth after 7 days by beta-galactosidase assay; type: functional, organism-based; settings: Squib-427, MRC5, 168 h
[29] = Selectivity index, ratio of IC50 for human MRC5 cells to IC50 for Trypanosoma brucei Squib-427; type: toxicity, cell-based; settings: read-out: Ratio IC50
Plasmodium falciparum = assay: Antiplasmodial activity against chloroquine-resistant Plasmodium falciparum 2/K1-strain cultured in human red blood cells assessed as infected cells after 72 hrs by malstat method; type: functional, organism-based; settings: 2/K1, 72 h
Trypanosoma cruzi [30] = assay: Decrease in D-lactate catabolites in epimastigote Trypanosoma cruzi at IC25 concentration after 96 hrs; type: functional
Trypanosoma cruzi [31] = assay: Decrease in pyruvate catabolites in epimastigote Trypanosoma cruzi at IC25 concentration after 96 hrs; type: functional
Mus musculus [32] = assay: Toxicity in Trypanosoma cruzi IRHOD/CO/2008/SN3 infected in BALB/c mouse acute chagas disease model assessed as kidney marker uric acid level at 25 mg/kg, ip after 60 days immunosuppressed with cyclophosphamide monohydrate measured up to day 120 post infection […]; type: organism-based; set-up: dose 25 mg/kg, route intraperitoneal; settings: in vivo, 1440 h
Trypanosoma cruzi [33] = assay: Decrease in L-alanine catabolites in epimastigote Trypanosoma cruzi at IC25 concentration after 96 hrs; type: functional
Trypanosoma cruzi [34] = assay: Trypanocidal activity against epimastigote Trypanosoma cruzi IRHOD/CO/2008/SN3 infected in african green monkey Vero cells assessed as decrease in rate of infection at IC25 concentration on day 10; type: functional
Mus musculus [35] = assay: Toxicity in Trypanosoma cruzi IRHOD/CO/2008/SN3 infected in BALB/c mouse acute chagas disease model assessed as heart marker CK-MB level at 25 mg/kg, ip after 60 days immunosuppressed with cyclophosphamide monohydrate measured up to day 120 post infection […]; type: organism-based; set-up: dose 25 mg/kg, route intraperitoneal; settings: in vivo, 1440 h
Trypanosoma cruzi [36] = assay: Decrease in acetate catabolites in epimastigote Trypanosoma cruzi at IC25 concentration after 96 hrs; type: functional
Trypanosoma cruzi [37] = assay: as §1, with “5” for “25”; type: functional; settings: route intraperitoneal
Trypanosoma cruzi [38] = assay: Antiparasitic activity against trypomastigote form of Trypanosoma cruzi IRHOD/CO/2008/SN3 infected in BALB/c mouse acute chagas disease model assessed as parasite reduction in blood at 5 mg/kg, ip measured on day 40 post infection; type: functional; set-up: scale not given: the % may be the effect or the level left; settings: route intraperitoneal

Chain of Superoxide dismutase [Cu-Zn] (P00441 whole entry): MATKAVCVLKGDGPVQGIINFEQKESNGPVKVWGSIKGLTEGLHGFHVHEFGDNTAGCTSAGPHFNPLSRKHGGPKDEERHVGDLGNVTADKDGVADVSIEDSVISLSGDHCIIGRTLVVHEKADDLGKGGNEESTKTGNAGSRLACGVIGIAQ

Structure (SMILES): COc1c(C(C)C)cc2c(c1O)[C@@]1(C(=O)O)CCCC(C)(C)[C@@H]1CC2
IC50 (L6): 17.3 µM
IC50 (Leishmania donovani [1]): 0.75 µM

IC50 (Leishmania donovani [2]): 0.12 µM
IC50 (Leishmania major): 0.18 µM
Structure (SMILES): CC(C)C1=CC(=O)C2=C(CC[C@H]3C(C)(C)CCC[C@]23C)C1=O

IC50 (Leishmania donovani [2]): 0.17 µM
IC50 (Leishmania major): 0.29 µM
Structure (SMILES): COC1=C(C(C)C)C(=O)C2=C(O)C(=O)C3=C(C=CCC3(C)C)C2=C1

Structure (SMILES): CC(=O)OC[C@@]1(C)CCC[C@]2(C)c3cc(O)c(C(C)C)cc3C(=O)C[C@@H]12
IC50 (Vero): 72.7 µM
selectivity ratio [3]: 2.8
selectivity ratio [4]: 2.8
IC50 (Trypanosoma cruzi [5]): 26.3 µM
IC50 (Trypanosoma cruzi [6]): 25.5 µM

Structure (SMILES): COC(=O)[C@]1(C)CCC[C@]2(C)c3ccc(O)cc3CC[C@@H]12
Activity (Mus musculus [7]): < 10%
Activity (Mus musculus [8]): < 10%
Activity (Mus musculus [9]): < 10%
IC50 (Vero): 474 µM
IC50 [10]: 43.9 µM
inhibition in vivo at 25 mg/kg (Trypanosoma cruzi [11]): 22%
Activity (Mus musculus [12]): < 10%
selectivity ratio [13]: 5.3
inhibition (Trypanosoma cruzi [14]): 100%
selectivity ratio [3]: 17.5
Activity (Trypanosoma cruzi [15]): 6.3%
Activity (Mus musculus [16]): < 10%
IC50 [17]: 58.9 µM
selectivity ratio [4]: 12.1
Activity (Trypanosoma cruzi [18]): inactive
IC50 (Trypanosoma cruzi [5]): 39.2 µM
IC50 (Trypanosoma cruzi [6]): 27.1 µM
Activity (Trypanosoma cruzi [19]): 48.1%
Activity (Trypanosoma cruzi [20]): 0.5%
Activity (Trypanosoma cruzi [21]): 41%
Activity (Mus musculus [22]): < 10%
Activity (Trypanosoma cruzi [23]): 0.4%
Activity (Trypanosoma cruzi [24]): 30%
Activity (Trypanosoma cruzi [25]): 17%
Activity (Trypanosoma cruzi [26]): 2.3%
IC50 (Trypanosoma cruzi [27]): 89.3 µM

Structure (SMILES): CC(C)C1=CC2=C[C@H](O)[C@H]3C(C)(C)C(O)C=C[C@]3(C)C2=C(O)C1=O (some centres not stated)
selectivity ratio [28]: 10.4
IC50 (Trypanosoma brucei): 1.9 µM
selectivity ratio [29]: 50.5
IC50 (Plasmodium falciparum): 9.2 µM

Structure (SMILES): CC(C)c1cc2c(cc1O)[C@@]1(C)CCCC(C)(C)[C@@H]1CC2=O [SUGIOL]
IC50 (Vero): 45.4 µM
selectivity ratio [3]: 1.84
selectivity ratio [4]: 1.37
IC50 (Trypanosoma cruzi [5]): 33.1 µM
IC50 (Trypanosoma cruzi [6]): 24.6 µM

Structure (SMILES): CC(C)c1cc2c(cc1O)[C@@]1(C)CCC[C@@](C)(CO)[C@@H]1[C@@H](O)C2=O
Activity (Mus musculus [7]): > 10%
Activity (Mus musculus [8]): < 10%
Activity (Mus musculus [9]): > 10%
inhibition (INH) (Trypanosoma cruzi [30]): 6.4%
inhibition (INH) (Trypanosoma cruzi [31]): 1.4%
IC50 (Vero): 222 µM
Activity (Mus musculus [32]): < 10%
IC50 [10]: 42.1 µM
inhibition in vivo at 25 mg/kg (Trypanosoma cruzi [11]): 45%
inhibition (INH) (Trypanosoma cruzi [33]): 7.7%
Activity (Mus musculus [12]): < 10%
selectivity ratio [13]: 3.7
inhibition (Trypanosoma cruzi [14]): 100%
selectivity ratio [3]: 31.4
inhibition (INH) (Trypanosoma cruzi [34]): 80%
Activity (Mus musculus [35]): < 10%
Activity (Mus musculus [16]): < 10%
IC50 [17]: 56.6 µM
selectivity ratio [4]: 11.8
Activity (Trypanosoma cruzi [18]): Active
IC50 (Trypanosoma cruzi [5]): 18.7 µM
IC50 (Trypanosoma cruzi [6]): 7.1 µM
Activity (Trypanosoma cruzi [19]): 9.8%
Activity (Trypanosoma cruzi [21]): 38%
Activity (Mus musculus [22]): < 10%
Activity (Trypanosoma cruzi [24]): 17.1%
Activity (Trypanosoma cruzi [25]): 50%
IC50 (Trypanosoma cruzi [27]): 59.9 µM
inhibition (INH) (Trypanosoma cruzi [36]): 0.3%

Structure (SMILES): CC(C)c1cc2c(c(Br)c1O)[C@@]1(C)CCCC(C)(C)[C@@H]1CC2
IC50 (Vero): 184 µM
selectivity ratio [3]: 4.38
selectivity ratio [4]: 3.69
IC50 (Trypanosoma cruzi [5]): 49.7 µM
IC50 (Trypanosoma cruzi [6]): 41.9 µM

Structure (SMILES): O=C(Cn1ccnc1[N+](=O)[O-])NCc1ccccc1 [BENZNIDAZOLE]
Activity (Trypanosoma cruzi [37]): 36%
Activity (Trypanosoma cruzi [38]): 16.7%
